Assay results reported in the supplement of paper PMC11208160.

Assay: recombinant UMI read abundance after kanamycin selection (control-corrected) (log10(CPM+1)); higher = more efficient recombination; extreme values may be limits of the assay; sequences stand for … in AGTGCAGAGAAAATCGGCCAGTTTTCTCTGCCTGCAGTCCGCATGCCGTGGGACCCCTTGGGTTCTAACCTGTTGCCTAGATTTATGCAGCGGACTGCCTTTCTCCCAAAGTGATAAACCGG…AGGTTGGTTTCACT; site = the 11-nt donor
Method in brief: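 Sequenced counts of recombinant UMIs were turned into CPM, averaged across replicates and scaled with control-derived factors. The reported figure is log10(CPM+1). Those UMIs, each 12 nt long, tagged donor and donor-binding-loop pairs on a plasmid with a promoterless kanamycin gene, screened as a pool in Escherichia coli with IPTG (0.07 mM) plus kanamycin or without selection.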
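Also: IS621 bridge recombinase in Escherichia coli cells against a fixed T5 target plasmid.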

Sequence	recombinant UMI read abundance (log10)
TCACATCCATGGACCGGTTTTCCCGGTAATCCGTATTTGAC (site GCACATCCTGT)	0
TCACATCCATGGACCGGTTTTCCCGGTAATCCGTATTTGAC (site TCACATCCTGT)	0
TCACCCGCATGGACCGGTTTTCCCGGTAATCCGTATTTGGT (site TCACCCGCTAC)	0.206
TCACCTTCATGGACCGGTTTTCCCGGTAATCCGTATTTGGT (site TCACCTTCTAC)	0.0163
TCACGAACATGGACCGGTTTTCCCGGTAATCCGTATTTGTC (site ACACGAACTGA)	0
TCACGAACATGGACCGGTTTTCCCGGTAATCCGTATTTGTC (site CCACGAACTGA)	0.736
TCACGAACATGGACCGGTTTTCCCGGTAATCCGTATTTGTC (site GCACGAACTGA)	0
TCACGAACATGGACCGGTTTTCCCGGTAATCCGTATTTGTC (site TCACGAACTGA)	0
TCACGAGCATGGACCGGTTTTCCCGGTAATCCGTATTTGAA (site TCACGAGCTTT)	1.23
TCACGCACATGGACCGGTTTTCCCGGTAATCCGTATTTGAC (site TCACGCACTGT)	0.943
TCACGCGCATGGACCGGTTTTCCCGGTAATCCGTATTTGCT (site TCACGCGCTAG)	1.67
TCACGGACATGGACCGGTTTTCCCGGTAATCCGTATTTGCT (site TCACGGACTAG)	1.43
TCAGAAACATGGACCGGTTTTCCCGGTAATCCGTATTTGCG (site TCAGAAACTCG)	1.86
TCAGAAACATGGACCGGTTTTCCCGGTAATCCGTATTTGCG (site TCAGACACTCG)	0.0112
TCAGAAACATGGACCGGTTTTCCCGGTAATCCGTATTTGCG (site TCAGAGACTCG)	2.47
TCAGAAACATGGACCGGTTTTCCCGGTAATCCGTATTTGCG (site TCAGATACTCG)	0.202

Sequence	recombinant UMI read abundance (log10)
TCAGAAACATGGACCGGTTTTCCCGGTAATCCGTATTTGTA (site TCAGAAACTTA)	2.07
TCAGACACATGGACCGGTTTTCCCGGTAATCCGTATTTGCG (site TCAGAAACTCG)	0
TCAGACACATGGACCGGTTTTCCCGGTAATCCGTATTTGCG (site TCAGACACTCG)	1.77
TCAGACACATGGACCGGTTTTCCCGGTAATCCGTATTTGCG (site TCAGAGACTCG)	0.0043
TCAGACACATGGACCGGTTTTCCCGGTAATCCGTATTTGCG (site TCAGATACTCG)	0.946
TCAGAGACATGGACCGGTTTTCCCGGTAATCCGTATTTGAA (site TCAGAGACTTT)	1.74
TCAGAGACATGGACCGGTTTTCCCGGTAATCCGTATTTGCA (site TCAGAGACTAG)	0.204
TCAGAGACATGGACCGGTTTTCCCGGTAATCCGTATTTGCA (site TCAGAGACTCG)	1.34
TCAGAGACATGGACCGGTTTTCCCGGTAATCCGTATTTGCA (site TCAGAGACTGG)	0.635
TCAGAGACATGGACCGGTTTTCCCGGTAATCCGTATTTGCA (site TCAGAGACTTG)	2.49
TCAGAGACATGGACCGGTTTTCCCGGTAATCCGTATTTGCC (site TCAGAGACTAG)	0.85
TCAGAGACATGGACCGGTTTTCCCGGTAATCCGTATTTGCC (site TCAGAGACTCG)	0.683
TCAGAGACATGGACCGGTTTTCCCGGTAATCCGTATTTGCC (site TCAGAGACTGG)	1.58
TCAGAGACATGGACCGGTTTTCCCGGTAATCCGTATTTGCC (site TCAGAGACTTG)	1.62
TCAGAGACATGGACCGGTTTTCCCGGTAATCCGTATTTGCT (site TCAGAGACTAG)	2.38
TCAGAGACATGGACCGGTTTTCCCGGTAATCCGTATTTGCT (site TCAGAGACTCG)	0.601
